Experimental data: patent US20130203715A1, “USE OF TRP CHANNEL AGONISTS TO TREAT INFECTIONS” (Pulmatrix, Inc., priority 2010, published 2013)
Where two headings read alike, the source gives them in different places.

Tests used:
[1] = test system: parainfluenza (hPIV3); type: cell-based, human parainfluenza virus
[2] = test system: Influenza A/Panama/2007/99; experiment: Influenza infection of normal human bronchial epithelial (NHBE) cells, viral titer by TCID50; type: cell-based, Influenza A (H3N2); details: for Effect of TRPV4 agonist on influenza replication in NHBE cells: agonist 1 μM one hour prior to infection and reapplied 3 h after, compared to PBS control
[3] = test system: rhinovirus (RV16); type: cell-based, human rhinovirus
[4] = test system: Influenza A/Panama/2007/99; type: cell-based; details: for Effect of TRP channel antagonist on 8×Ca:Na formulation-mediated reduction of influenza infection: Calu-3 cells pretreated with antagonist (RR 1 μM, SKF96365 10 μM, RN1734 1-100 μM), then 8×Ca:Na formulation
[5] = Calu-3 cells, treatment alone, compared to untreated control
[6] = reduction of influenza infection, TCID50 24 h after infection
[7] = reduction of influenza infection, agonist applied apically 1 h before and again 3 h after infection, titer 24 h after infection
[8] = Calu-3 cells pretreated with ruthenium red 1 μM, then 8×Ca:Na formulation

## CCCCCCCCCC(=O)O[C@@H]1[C@@H](C)[C@@]2(O)[C@@H](C=C(CO)C[C@@]3(O)C(=O)C(C)=C[C@@H]23)[C@@H]2C(C)(C)[C@]12OC(=O)CCCCCCCCC [4αPDD, 4α-Phorbol 12,13-didecanoate]
[1]; Calu-3 cells, hPIV3, compared to untreated control
  Effect on parainfluenza infection of Calu-3 cells: able to reduce
[2]
  Effect of TRPV4 agonist on influenza replication in NHBE cells: reduced influenza replication
[3]; Calu-3 cells, RV16, compared to untreated control
  Effect on rhinovirus infection of Calu-3 cells: able to reduce
[4]
  Active concentrations: -9 to -5 M
  Effect on influenza infection (viral titer) of Calu-3 cells: reduces influenza infection
  Max reduction in titer (Log10): 2.9 Log10

## COc1cc(CNC(=O)CCCC/C=C/C(C)C)ccc1O [Capsacin]
[4]
  Active concentrations: -8 to -4 M
  Max reduction in titer (Log10): 2.2 Log10

## Cc1ccc(C(C)C)cc1O [Carvacrol]
[4]
  Active concentrations: −6.5 to −4M^
  Max reduction in titer (Log10): 3 Log10
[4]; [5]
  Effect on influenza infection (viral titer) of Calu-3 cells: reduced influenza titer in a dose responsive manner

## O=C(O)c1ccccc1Nc1cccc(C(F)(F)F)c1 [Flufenamic acid]
[4]; [5]
  Effect on influenza infection (viral titer) of Calu-3 cells: reduced influenza titer in a dose responsive manner
[4]; [6]
  Max reduction in titer (Log10): 2.5 Log10
[4]; [7]
  Active concentrations: -6 to -4 M

## CC(C)C[C@H](NC(=O)c1cc2ccccc2s1)C(=O)N1CCN(C(=O)[C@H](CO)NS(=O)(=O)c2ccc(Cl)cc2Cl)CC1 [GSK1016790A]
[2]
  Effect of TRPV4 agonist on influenza replication in NHBE cells: reduced influenza replication
[4]
  Active concentrations: -11 to -6 M
  Max reduction in titer (Log10): 5.0 Log10
[4]; [5]
  Effect on influenza infection (viral titer) of Calu-3 cells: reduces influenza infection in a dose-dependent manner
[4]; Calu-3 cells, treatment alone, compared to untreated control, listed as GSK10168790
  Effect on influenza infection (viral titer) of Calu-3 cells: the highest level of anti-viral efficacy in a dose-dependent manner

## O=C1NC(c2cccc([N+](=O)[O-])c2)=CCN1c1ccccc1O [Icilin]
[4]; [5]
  Effect on influenza infection (viral titer) of Calu-3 cells: small, but measurable reduction of influenza titer
[4]; [6]
  Max reduction in titer (Log10): 1 Log10
[4]; [7]
  Active concentrations: -6 to -4 M

## CC1CCC(C(C)C)C(O)C1 (centres unmarked) [Menthol]
[4]; [5]
  Effect on influenza infection (viral titer) of Calu-3 cells: reduced influenza titer in a dose responsive manner
[4]; [6]
  Max reduction in titer (Log10): 2.5 Log10
[4]; [7]
  Active concentrations: -7 to -4 M

## CC(C)NCCN(C(C)C)S(=O)(=O)c1ccc(Cl)cc1Cl [RN1734]
[4]
  Effect of TRP channel antagonist on 8×Ca:Na formulation-mediated reduction of influenza infection: inhibited the 8×Ca:Na formulation-mediated reduction of influenza infection in a dose dependent manner

## O=[N+]([O-])c1cc(Cl)ccc1S(=O)(=O)N1CCN(Cc2ccccc2)CC1 [RN1747]
[4]
  Active concentrations: -8 to -4 M
  Max reduction in titer (Log10): 2.3 Log10
[4]; [5]
  Effect on influenza infection (viral titer) of Calu-3 cells: reduces influenza infection in a dose-dependent manner

## C=C(C)[C@]12C[C@@H](C)[C@@]34O[C@](Cc5ccccc5)(O[C@@H]1[C@@H]3C=C(COC(=O)Cc1ccc(O)c(OC)c1)C[C@]1(O)C(=O)C(C)=C[C@@H]41)O2 [Resiniferatoxin]
[4]
  Active concentrations: -6 to -4 M
  Max reduction in titer (Log10): 3.3 Log10

## N.N.N.N.N.N.N.N.N.N.N.N.N.N.[Cl-].[Cl-].[Cl-].[Cl-].[Cl-].[Cl-].[O-2].[O-2].[Ru+3].[Ru+3].[Ru+4] [Ruthenium Red]
[1]; [8]
  Effect of antagonist on 8×Ca:Na formulation efficacy against parainfluenza: the efficacy of the 8× treatment was reduced
[2]; ruthenium red 1 μM before 8×Ca:Na formulation
  Effect of antagonist on 8×Ca:Na formulation anti-viral action in NHBE cells: blocked the anti-viral action of the Ca:Na formulation
[3]; [8]
  Effect of antagonist on 8×Ca:Na formulation efficacy against rhinovirus: the efficacy of the 8× treatment was reduced
[4]; Calu-3 cells pre-treated with ruthenium red 1 μM, then dry powder Formulation I
  Effect of antagonist on Formulation I reduction of influenza viral titer: attenuated
[4]; Calu-3 cells pre-treated with ruthenium red 1 μM, then dry powder Formulation II
  Effect of antagonist on Formulation II reduction of influenza infection: attenuated
[4]
  Effect of TRP channel antagonist on 8×Ca:Na formulation-mediated reduction of influenza infection: the effect on viral infection was reduced to levels comparable to the untreated control cells

## COc1ccc(CCCOC(Cn2ccnc2)c2ccc(OC)cc2)cc1 (centres unmarked) [SKF96365]
[4]
  Effect of TRP channel antagonist on 8×Ca:Na formulation-mediated reduction of influenza infection: the effect on viral infection was reduced to levels comparable to the untreated control cells
